Measured values: patent US20070292403A1, “Methods of treating a neurological disorder with creatine monohydrate” (priority 2006, published 2007)
“Also recorded” adds a separate entry of the source.

How the values were obtained:
[1] = test system: subjects with early Parkinson's disease (PD); experiment: Example 2: randomized double-blind futility trial, change in total UPDRS; type: in vivo, human; settings: baseline to 12 months or time symptomatic therapy needed; creatine 10 g/day, minocycline 200 mg/day; worst change score imputed
Method: (§1) Study Design and Randomization. This example was a single arm futility study designed to assess creatine and minocycline. A placebo arm for calibration was included in the example. Eligible subjects were randomly assigned in a 1:1:1 fashion to receive 1) 10 g/day of creatine monohydrate and placebo minocycline, 2) placebo creatine monohydrate and 200 mg/day of minocycline, or 3) placebo creatine monohydrate and placebo minocycline. The primary futility analysis was at 12 months of follow-up, but each subject was followed for 18 months for additional safety information. Subjects and investigators were kept blinded to treatment group.
Participants. […] Two of the three cardinal manifestations of PD (tremor, rigidity, and bradykinesia) were required; these findings had to be asymmetric. The diagnosis of PD must have been made within 5 years of randomization. Women of childbearing potential were required to use adequate birth control and have a negative pregnancy test at baseline. Subjects were excluded if they had any secondary causes of parkinsonism, such as drug induced parkinsonism or structural lesions; had atypical parkinsonian syndromes; gait freezing or impairment in postural reflexes; had prior stereotaxis surgery for PD; used creatine, minocycline, or any investigational agent within 90 days prior to randomization; had known hypersensitivity to creatine or minocycline; used CoQ10 in doses greater than 300 mg 90 days prior to randomization; or had any clinically significant medical condition that could interfere with the subject's ability to safely participate in the study or be followed.
(§2) Dosages. Creatine was administered as 5 g sachets mixed with 8 ounces of liquid taken twice a day and minocycline was administered as 100 mg capsules taken twice a day. Both were taken with meals.
Outcome measures. […] Disability was assessed by the sight investigator, based on impairment in ambulation, activities in daily living, and occupational status. […] Both the site investigator and medical monitors assessed the potential relationship between SAEs and study drug. […]

[2] = test system: subjects with early Parkinson's disease (PD); experiment: Example 2: safety and tolerability in the early Parkinson's disease trial; type: in vivo, human
Method: as §1, §2
Outcome measures. The primary, prespecified outcome measure was the change in the total Unified PD Rating Scale (UPDRS) score from baseline to either the time at which there was sufficient disability to warrant symptomatic therapy for PD or 12 months, whichever came first. Disability was assessed by the sight investigator, based on impairment in ambulation, activities in daily living, and occupational status. The mean change in total UPDRS for each treatment group was compared to a prespecified futility threshold of a 30% reduction in the historically derived change in the total UPDRS, which was based on a placebo arm of a previous clinical trial. Tolerability was defined as the proportion of subjects taking study drug for the full 12 months. All […] adverse events (SAEs) were reviewed by the study medical monitor and an independent medical monitor. Both the site investigator and medical monitors assessed the potential relationship between SAEs and study drug.
Study Procedures. At the screening visit, the purpose and potential risks were explained to potential subjects and each subject gave written consent. […] Blood was obtained for serum chemistry and complete blood count. Participants were reevaluated at 1, 3, 6, 9, and 12 months (±6 days) after the baseline visit using the battery of clinical scales and blood was drawn again at 6 and 12 months.

## CN(C)c1ccc(O)c2c1C[C@H]1C[C@H]3[C@H](N(C)C)C(O)=C(C(N)=O)C(=O)[C@@]3(O)C(O)=C1C2=O [Minocycline, minocycline]
[1]
  Mean (SD) change in total UPDRS: 7.09 (8.71)
[2]; creatine 10 g/day, minocycline 200 mg/day
  SAEs occurring during the study: Six
[2]; creatine 10 g/day, minocycline 200 mg/day, 12 months
  Tolerability: generally well tolerated; also recorded: less well tolerated than creatine
[2]; human, in vivo
  Patients with dose reductions: 15
